Read-outs that look alike come from different tables or passages of the source.
Assays:
[1] = system: effects of serotonin; assay: Antagonistic activity on the effects of serotonin in the gastric lesion test (lesions induced by compound 48/80); type: in vivo, rats of a Wistar inbred strain; details: for ED50: Rattus norvegicus, po, read-out: gastric lesion test ED50
Protocol: Antagonistic activity on the effects of serotonin in the gastric lesion test.
The shock, followed by dead, can be avoided if the rats are pretreated with a classical H 1 antagonist.
Male rats of a Wistar inbred strain, weighing 220-250 g, were starved overnight, water being available ad libitum. The test compounds were administered orally as a solution or as a suspension in aqueous medium. A control rat and a "blank" rat received the test compound. One hour later 5-[4-(diphenylmethyl)1-piperazinylmethyl]-1-methyl-1H-benzimidazole-2-methanol was administered subcutaneously to all rats at the dose of 2.5 mg/kg. […] Four hours after the intravenous injection of compound 48/80, the rats were decapitated and the stomachs were removed. Subsequently the stomachs were inspected for distension and contents (blood, fluid, food) and thoroughly rinsed. The macroscopic lesions were scored from 0 to +++, 0 corresponding to complete absence of visible lesions and the highest score corresponding to reddish rough patches covering more than half the glandular area.
The second column of tables 1-4 show for a number of compounds of formula (I) the doses (in mg/kg body weight) at which the distension of the stomach as well as the lesions in the glandular area of the stomach are completely absent in 50% of the test rats (ED50 -value).

[2] = system: compound 48/80-induced lethality; assay: Protection of rats from compound 48/80-induced lethality; type: in vivo, rats of an inbred Wistar strain; details: Rattus norvegicus, 4 h, read-out: Compound 48/80 lethality test in rats ED50, s.c. or p.o. 1 h before compound 48/80 0.5 mg/kg i.v.; protection of 50% of animals, survival after 4 hours
In short: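 Male inbred Wistar rats (240-260 g), starved overnight, dosed subcutaneously or orally with compound or 0.9% NaCl before compound 48/80 challenge. Survival at 4 hours counted as protection. ED50 in mg/kg is the dose protecting 50% of animals from lethality.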

[3] = compound 48/80 1 mg/kg i.v., distension and lesions of stomach completely absent in 50% of rats

Structure (SMILES)	ED50 [1, 3]	ED50 [2]	ED50 [1]	gastric lesion test ED50 ([1]; oral, compound 48/80 1 mg/kg i.v., distension and lesions of stomach completely absent in 50% of rats, 1 mg/kg)
Fc1ccc(Cn2c(CC3CCNCC3)nc3ccccc32)cc1 [Compound 47, 1-[(4-fluorophenyl)methyl]-2-(4-piperidinylmethyl)-1H-benzimidazole]	0.63 mg/kg	0.08 mg/kg		
Cc1nc2ccccn2c(=O)c1CCN1CCC(Cc2nc3ncccc3n2Cc2ccc(F)cc2)CC1 [Compound 272]	0.63 mg/kg	0.08 mg/kg		
Fc1ccc(Cn2c(CC3CCN(CCNc4ccccn4)CC3)nc3ccccc32)cc1 [Compound 499]	0.01 mg/kg	0.04 mg/kg		
Fc1ccc(Cn2c(CC3CCN(CCNc4nc5cnccc5s4)CC3)nc3ccccc32)cc1 [Compound 332, N-[2-[4-[[1-[(4-fluorophenyl)methyl]-1H-benzimidazol-2-yl]methyl]-1-piperidinyl]ethyl]thiazolo[4,5-c]pyridin-2-amine]		0.08 mg/kg	0.08 mg/kg	
Fc1ccc(Cn2c(CC3CCN(CCOc4ncccn4)CC3)nc3ccccc32)cc1 [Compound 391, 1-[(4-fluorophenyl)methyl]-2-[[1-[2-(2-pyrimidinyloxy)ethyl]-4-piperidinyl]methyl]-1H-benzimidazole]	0.02 mg/kg	0.02 mg/kg		
O=c1c2ccccc2[nH]c(=S)n1CCN1CCC(Cc2nc3ccccc3n2Cc2ccco2)CC1 [Compound 461, 3-[2-[4-[[1-(2-furanylmethyl)-1H-benzimidazol-2-yl]methyl]-1-piperidinyl]ethyl]-2,3-dihydro-2-thioxo-4(1H)-quinazolinone]		0.08 mg/kg	0.08 mg/kg	
O=C(CCCN1CCC(Cc2nc3cccnc3n2Cc2ccc(F)cc2)CC1)c1ccc(F)cc1 [Compound 127]		0.08 mg/kg		0.63 mg/kg body weight
c1csc(Cn2c(CC3CCN(CCNc4nc5cnccc5[nH]4)CC3)nc3ccccc32)c1 [Compound 416, N-[2-[4-[[1-(2-thienylmethyl)-1H-benzimidazol-2-yl]methyl]-1-piperidinyl]ethyl]-1H-imidazo[4,5-c]pyridin-2-amine]		0.04 mg/kg	0.04 mg/kg	
CN1CCC(Cc2nc3cccnc3n2Cc2ccc(F)cc2)CC1 [Compound 90]	0.31 mg/kg	0.01 mg/kg		
Cc1nc2c(NCCN3CCC(Cc4nc5ccccc5n4Cc4ccc(F)cc4)CC3)ncnc2n1C [Compound 372]	0.16 mg/kg	0.04 mg/kg		
Fc1ccc(Cn2c(CC3CCN(CCNc4ncc[nH]4)CC3)nc3ccccc32)cc1 [Compound 453, 4-[[1-[(4-fluorophenyl)methyl]-1H-benzimidazol-2-yl]methyl]-N-(1H-imidazol-2-yl)-1-piperidineethanamine]	0.02 mg/kg	0.04 mg/kg		
Nc1nccnc1C(=O)NCCN1CCC(Cc2nc3ccccc3n2Cc2ccc(F)cc2)CC1 [Compound 436, 3-amino-N[2-[4-[[1-[(4-fluorophenyl)methyl]-1H-benzimidazol-2-yl]methyl]-1-piperidinyl]ethyl]-2-pyrazinecarboxamide]	0.63 mg/kg	0.01 mg/kg		
O=C(NCCN1CCC(Cc2nc3cccnc3n2Cc2ccc(F)cc2)CC1)c1ccoc1 [Compound 432]	0.31 mg/kg	0.04 mg/kg		
Cn1cccc1C(=O)NCCN1CCC(Cc2nc3ccccc3n2Cc2ccc(F)cc2)CC1 [Compound 433, N-[2-[4-[[1-[(4-fluorophenyl)methyl]-1H-benzimidazol-2-yl]methyl]-1-piperidinyl]ethyl]-1-methyl-1H-pyrrole-2-carboxamide]	0.16 mg/kg	0.01 mg/kg		
Fc1ccc(Cn2c(CC3CCN(CCNc4nc5ccccc5s4)CC3)nc3ccccc32)cc1 [Compound 367]	0.16 mg/kg	0.16 mg/kg		
COc1ccc(CCN2CCC(Cc3nc4cccnc4n3Cc3ccco3)CC2)cc1 [Compound 189]	0.63 mg/kg	0.02 mg/kg		
Oc1ccc(CCN2CCC(Cc3nc4ccccc4n3Cc3ccc(F)cc3)CC2)cc1 [Compound 504, 4-[2-[4-[[1-[(4-fluorophenyl)methyl]-1H-benzimidazol-2-yl]methyl]-1-piperidinyl]ethyl]phenol]	0.63 mg/kg	0.08 mg/kg		
c1coc(Cn2c(CC3CCN(CCNc4nccs4)CC3)nc3ccccc32)c1 [Compound 335]	0.16 mg/kg	0.02 mg/kg		
CN(CCN1CCC(Cc2nc3ccccc3n2Cc2ccc(F)cc2)CC1)c1ncccn1 [Compound 514, N-[2-[4-[[1-[(4-fluorophenyl)methyl]-1H-benzimidazol-2-yl]methyl]-1-piperidinyl]ethyl]-N-methyl-2-pyrimidinamine]	0.63 mg/kg	0.02 mg/kg		

Structure (SMILES)	ED50 [1, 3]	ED50 [2]	ED50 [1]	gastric lesion test ED50 ([1]; oral, compound 48/80 1 mg/kg i.v., distension and lesions of stomach completely absent in 50% of rats, 1 mg/kg)
Fc1ccc(Cn2c(CC3CCN(CCc4cccs4)CC3)nc3ccccc32)cc1 [Compound 118, 1-[(4-fluorophenyl)methyl]-2-[[1-[2-(2-thienyl)ethyl]-4-piperidinyl]-methyl]-1H-benzimidazole]	0.63 mg/kg	0.04 mg/kg		
Cc1cc(Cl)nc(NCCN2CCC(Cc3nc4ccccc4n3Cc3ccc(F)cc3)CC2)n1 [Compound 382, 4-chloro-N-[2-[4-[[1-[(4-fluorophenyl)methyl]-1H-benzimidazol-2-yl]methyl]-1-piperidinyl]ethyl]-6-methyl-2-pyrimidinamine]	0.63 mg/kg	0.08 mg/kg		
Nc1ccccc1C(=O)NCCN1CCC(Cc2nc3ccccc3n2Cc2ccc(F)cc2)CC1 [Compound 468, 2-amino-N-[2-[4-[[1-[(4-fluorophenyl)methyl]-1H-benzimidazol-2-yl]methyl]-1-piperidinyl]ethyl]benzamide]	0.63 mg/kg	0.02 mg/kg		
COc1ccc(CCN2CCC(Cc3nc4ccccc4n3Cc3ccco3)CC2)cc1 [Compound 229]	0.63 mg/kg	0.04 mg/kg		
O=C(c1ccccc1)N(CCN1CCC(Cc2nc3ccccc3n2Cc2ccc(F)cc2)CC1)c1ncccn1 [Compound 508, N-[2-[4-[[1-[(4-fluorophenyl)methyl]-1H-benzimidazol-2-yl]methyl]-1-piperidinyl]ethyl]-N-(2-pyrimidinyl)benzamide]	0.16 mg/kg	0.08 mg/kg		
Cc1nc2n(c(=O)c1CCN1CCC(Cc3nc4ccccc4n3Cc3ccco3)CC1)CCCC2 [Compound 226]		0.08 mg/kg	0.04 mg/kg	
Cc1nc2scc(C)n2c(=O)c1CCN1CCC(Cc2nc3cccnc3n2Cc2ccco2)CC1 [Compound 151, 6-[2-[4-[[3-(2-furanylmethyl)-3H-imidazo[4,5-b]pyridin-2-yl]methyl]-1-piperidinyl]ethyl]-3,7-dimethyl-5H-thiazolo[3,2-a]pyrimidin-5-one]	0.16 mg/kg	0.02 mg/kg		
Fc1ccc(Cn2c(CC3CCN(CCn4c(=S)[nH]c5ccccc54)CC3)nc3ccccc32)cc1 [Compound 493, 1-[2-[4-[[1-[(4-fluorophenyl)methyl]-1H-benzimidazol-2-yl]methyl]-1-piperidinyl]ethyl]-1,3-dihydro-2H-benzimidazole-2-thione]		0.08 mg/kg	0.04 mg/kg	
c1cnc(NCCN2CCC(Cc3nc4ccccc4n3Cc3cccs3)CC2)nc1 [Compound 336]		0.01 mg/kg	0.08 mg/kg	
Cc1nc2ccccn2c(=O)c1CCN1CCC(Cc2nc3cccnc3n2Cc2ccco2)CC1 [Compound 180]	0.31 mg/kg	0.01 mg/kg		
Cc1nc2n(c(=O)c1CCN1CCC(Cc3nc4ccccc4n3Cc3ccc(F)cc3)CC1)CCCC2 [Compound 498, 3-[2-[4-[[1-[(4-fluorophenyl)methyl]-1H-benzimidazol-2-yl]methyl]-1-piperidinyl]ethyl]-6,7,8,9-tetrahydro-2-methyl-4H-pyrido[1,2-a]pyrimidin-4-one]	0.16 mg/kg	0.08 mg/kg		
N#CCN1CCC(Cc2nc3ccccc3n2Cc2ccc(F)cc2)CC1 [Compound 283]	0.63 mg/kg	0.04 mg/kg		
O=c1[nH]c2ccccc2c(=O)n1CCN1CCC(Cc2nc3ccccc3n2Cc2ccco2)CC1 [Compound 208]		0.04 mg/kg	0.08 mg/kg	
O=C(NCCN1CCC(Cc2nc3ccccc3n2Cc2ccc(F)cc2)CC1)c1ccsc1 [Compound 431]	0.005 mg/kg	0.04 mg/kg		
c1csc(Cn2c(CC3CCN(CCNc4nccs4)CC3)nc3ccccc32)c1 [Compound 356]		0.02 mg/kg	0.08 mg/kg	
COc1ncccc1C(=O)NCCN1CCC(Cc2nc3ccccc3n2Cc2ccc(F)cc2)CC1 [Compound 438, N-[2-[4-[[1-[(4-fluorophenyl)methyl]-1H-benzimidazol-2-yl]methyl]-1-piperidinyl]ethyl]-2-methoxy-3-pyridinecarboxamide]	0.16 mg/kg	0.08 mg/kg		
Cc1csc(NCCN2CCC(Cc3nc4ccccc4n3Cc3ccc(F)cc3)CC2)n1 [Compound 456, 4-[(1-[(4-fluorophenyl)methyl]-1H-benzimidazol-2-yl]methyl]-N-(4-methyl-2-thiazolyl)-1-piperidineethanamine]	0.63 mg/kg	0.01 mg/kg		
Fc1ccc(Cn2c(CC3CCNCC3)nc3cccnc32)cc1 [Compound 45, 3-[(4-fluorophenyl)methyl]-2-(4-piperidinylmethyl)-3H-imidazo[4,5-b]-pyridine]		0.04 mg/kg		
